Here are results for ten compounds from ChEMBL document CHEMBL5233224, “Therapeutic potential of targeting SHP2 in human developmental disorders and cancers” (Eur J Med Chem, 2020).

Bounds are passed on as bounds.

Experiment [1] concerns the target T1, Tyrosine-protein phosphatase non-receptor type 11 (Homo sapiens, UniProt Q06124).
T1 sequence (Q06124 whole entry): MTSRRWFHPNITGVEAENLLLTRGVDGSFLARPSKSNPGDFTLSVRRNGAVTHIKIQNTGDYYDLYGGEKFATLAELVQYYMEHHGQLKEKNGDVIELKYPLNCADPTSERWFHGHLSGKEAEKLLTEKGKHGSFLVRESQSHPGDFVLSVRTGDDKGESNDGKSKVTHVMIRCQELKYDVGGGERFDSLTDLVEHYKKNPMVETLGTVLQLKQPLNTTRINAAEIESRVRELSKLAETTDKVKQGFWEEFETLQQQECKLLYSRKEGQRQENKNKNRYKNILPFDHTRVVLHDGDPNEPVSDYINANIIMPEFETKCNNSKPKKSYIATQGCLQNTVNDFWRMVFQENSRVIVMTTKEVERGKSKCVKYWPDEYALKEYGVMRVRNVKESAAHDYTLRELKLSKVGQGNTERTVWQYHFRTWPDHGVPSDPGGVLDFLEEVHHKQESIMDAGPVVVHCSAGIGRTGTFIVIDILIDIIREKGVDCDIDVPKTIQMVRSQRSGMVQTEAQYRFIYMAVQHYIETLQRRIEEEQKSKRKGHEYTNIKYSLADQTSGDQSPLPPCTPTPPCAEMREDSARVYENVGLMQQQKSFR
In words: Inhibition of SHP2 (unknown origin).

Experiment [2] concerns the target Tyrosine-protein phosphatase non-receptor type 11 (Homo sapiens) (UniProt Q06124). In words: Inhibition of SHP2 (unknown origin) at 100 ug/ml. The settings on record: dose 100.0 µg/ml.
In experiment [3] the target is T1, Tyrosine-protein phosphatase non-receptor type 11. In words: Inhibition of SHP2 (unknown origin) using pNPP as substrate by spectrophotometer analysis.
Experiment [4] has the same target. In words: Inhibition of human His6-tagged wild type SHP2 PTP domain using pNPP as substrate by absorbance based analysis.
Experiment [5] has the same target. The experiment can be described thus: Inhibition of GST fused SHP2 PTP domain (unknown origin) using Thr-Arg-Asp-Ile-Tyr[PO3H2]-Glu-Thr-Asp-Tyr-Tyr as substrate incubated for 30 mins by malachite green staining based analysis.
Experiment [6] has the same target. The experiment can be described thus: Inhibition of GST fused SHP2 PTP domain (unknown origin) using EFpYAEVGRSPPDPAK peptide as substrate incubated for 30 mins by malachite green staining based analysis.
In experiment [7] the target is Tyrosine-protein phosphatase non-receptor type 6 (Homo sapiens, UniProt P29350). The experiment can be described thus: Inhibition of SHP1 (unknown origin).
The next experiment concerns BaF3. In words: Antiproliferative activity against mouse BaF3 cells assessed as cell growth inhibition measured after 48 hrs by MTS assay. The class given is functional, cell-based. As to conditions: BaF3, 48 h. Background: Tetrazolium dyes change colour on reduction, which living cells bring about.
The target of experiment [8] is T1, Tyrosine-protein phosphatase non-receptor type 11. In words: Binding affinity to SHP2 (unknown origin) assessed as inhibition constant.
In experiment [9] the target is T2, Receptor-type tyrosine-protein phosphatase O (Homo sapiens, UniProt Q16827).
T2 sequence (Q16827 whole entry): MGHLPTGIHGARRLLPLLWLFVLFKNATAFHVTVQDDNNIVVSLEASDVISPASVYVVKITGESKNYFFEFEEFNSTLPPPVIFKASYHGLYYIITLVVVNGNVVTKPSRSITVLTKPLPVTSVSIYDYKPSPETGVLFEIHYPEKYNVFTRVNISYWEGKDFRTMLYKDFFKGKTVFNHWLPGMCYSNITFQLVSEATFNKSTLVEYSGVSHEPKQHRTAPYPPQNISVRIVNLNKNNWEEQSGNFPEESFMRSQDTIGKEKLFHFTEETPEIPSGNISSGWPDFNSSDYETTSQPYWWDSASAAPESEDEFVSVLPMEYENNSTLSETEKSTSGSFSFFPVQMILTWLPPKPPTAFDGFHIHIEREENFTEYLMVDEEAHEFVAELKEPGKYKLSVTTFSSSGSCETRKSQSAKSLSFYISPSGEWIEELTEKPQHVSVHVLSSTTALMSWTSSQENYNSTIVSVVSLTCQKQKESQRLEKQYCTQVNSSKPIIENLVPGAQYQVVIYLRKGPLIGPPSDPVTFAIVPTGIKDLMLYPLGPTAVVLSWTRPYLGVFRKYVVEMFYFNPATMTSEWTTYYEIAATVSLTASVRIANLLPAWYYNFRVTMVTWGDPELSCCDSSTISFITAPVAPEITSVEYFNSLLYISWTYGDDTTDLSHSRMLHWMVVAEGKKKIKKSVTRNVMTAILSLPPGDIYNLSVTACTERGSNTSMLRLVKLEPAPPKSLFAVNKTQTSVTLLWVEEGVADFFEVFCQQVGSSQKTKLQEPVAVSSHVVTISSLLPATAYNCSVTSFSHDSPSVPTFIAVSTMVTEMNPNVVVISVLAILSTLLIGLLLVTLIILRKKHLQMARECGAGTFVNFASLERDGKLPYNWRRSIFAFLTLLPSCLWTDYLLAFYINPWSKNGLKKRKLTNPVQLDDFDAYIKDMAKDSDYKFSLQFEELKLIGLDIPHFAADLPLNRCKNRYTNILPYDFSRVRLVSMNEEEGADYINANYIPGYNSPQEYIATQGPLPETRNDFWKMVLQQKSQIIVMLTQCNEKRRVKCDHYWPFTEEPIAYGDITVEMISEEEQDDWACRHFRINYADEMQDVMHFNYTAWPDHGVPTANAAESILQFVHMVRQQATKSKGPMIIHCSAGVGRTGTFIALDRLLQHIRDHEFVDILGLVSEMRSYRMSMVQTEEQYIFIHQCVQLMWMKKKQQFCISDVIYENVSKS
The experiment can be described thus: Binding affinity to GLEPP1 (unknown origin) assessed as inhibition constant.

For experiment [10], the target named is T1, Tyrosine-protein phosphatase non-receptor type 11. The experiment can be described thus: Inhibition of human SHP2 (225 to 541 residues) using pNPP as substrate by microplate reader based analysis.

Tyrosine-protein phosphatase non-receptor type 6, sequence (P29350 whole entry): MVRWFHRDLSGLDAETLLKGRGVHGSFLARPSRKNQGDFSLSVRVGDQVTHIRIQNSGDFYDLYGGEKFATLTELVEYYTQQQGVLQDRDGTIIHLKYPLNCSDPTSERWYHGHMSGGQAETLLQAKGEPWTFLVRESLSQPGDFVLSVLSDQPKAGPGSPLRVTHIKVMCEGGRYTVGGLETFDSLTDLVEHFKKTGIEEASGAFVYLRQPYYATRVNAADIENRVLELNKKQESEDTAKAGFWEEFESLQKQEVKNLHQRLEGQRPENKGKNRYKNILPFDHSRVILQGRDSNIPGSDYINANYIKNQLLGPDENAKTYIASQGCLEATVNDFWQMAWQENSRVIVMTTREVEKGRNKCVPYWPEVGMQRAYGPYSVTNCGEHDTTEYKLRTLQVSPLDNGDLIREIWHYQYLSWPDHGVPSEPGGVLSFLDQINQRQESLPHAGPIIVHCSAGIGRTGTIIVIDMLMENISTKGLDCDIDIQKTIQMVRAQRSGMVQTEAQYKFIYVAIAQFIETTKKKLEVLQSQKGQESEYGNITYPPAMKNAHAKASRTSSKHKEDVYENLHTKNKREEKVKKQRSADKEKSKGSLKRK

As to `O=C1C=CC(=O)C(c2cc(Cl)ccc2Cl)=C1`, the 50% inhibitory concentration (IC50) (in general, the point on the concentration scale where inhibition reaches its midpoint) in experiment [1] is 0.4 µM.

As to “(3R,4S,5R)-1-(((3S,4R,5R)-3-(carboxymethyl)-1-hydroxy-5-((R)-1-hydroxypropan-2-yl)-2,6,7-trioxa-1l5-stibabicyclo[2.2.1]heptan-1-yl)oxy)-5-((R)-1,2-dihydroxyethyl)-1-hydroxy-2,6,7-trioxa-1l5-stibabicyclo[2.2.1]heptane-3-carboxylic acid”, the inhibition (in general, the percentage by which the read-out fell short of the control) in experiment [2] was determined as 99%.

For `O=C(O)c1ccc(O)c(-c2nnc3n(Cc4ccccc4Cl)c(=O)c4ccccc4n23)c1`, inhibition in [1] was half-maximal at 21 µM (IC50).

Turning to `C=C/C(=C/C(=O)C[C@H](C)C[C@@H](C)CC[C@H](O)[C@H](C)C(=O)C[C@@H](O)[C@H](C)[C@@H](C)OC(=O)C[C@@H](O)/C(C(=O)O)=C(\C)C(=O)O)CC`, 2.9 µM corresponded to half-maximal inhibition in [3] (IC50).

In the case of `COc1cccc(-c2nnc3n(Cc4ccc(C(=O)N5CCC[C@H]5C(=O)O)cc4Cl)c(=O)c4ccccc4n23)c1O`, the IC50 in experiment [1] was determined as 18.9 µM.

`C=CC(=O)Nc1ccnc2ccccc12` registered an IC50 in experiment [4] of 35 µM.

Regarding `Cc1cc(C)c2c(c1)[nH]c1nnc(SCC(=O)NCc3cccs3)nc12`, in [5], the IC50 worked out at 13.9 µM.

For the compound `O=C(CCn1cnc2sc3c(c2c1=O)CCCCC3)Nc1ccccc1[N+](=O)[O-]`, the IC50 in experiment [6] is 9.97 µM; in [7], > 100 µM; in the experiment on BaF3 it was 10.7 µM.

`CCCCCCN(Cc1ccc(C#Cc2ccc(CCCC)cc2)cc1)c1ccc(O)c(C(=O)O)c1`: the results for the Ki in experiment [8] and in [9] were 0.652 µM and 0.123 µM, respectively.

In [10], `CCOC(=O)c1ccc(N2N=C(c3ccc([N+](=O)[O-])cc3)/C(=N/Nc3ccc(S(=O)(=O)O)cc3)C2=O)cc1` came in with a concentration for half-maximal inhibition (IC50) of 0.63 µM.
